From patent US7618953B2, “Amorphous forms of risedronate monosodium” (Zentiva, a.s., priority 2004, dated 2009)
Where a name gives a salt, the structure may show the parent alone.

How the values were obtained:
physchem = settings: 22 °C, water, thermodynamic from solid
[1] = assay type: physicochemical; settings: for time until a transparent solution was formed: 0.796 mmol in 100 ml stirred aqueous hydrochloric acid, pH 1.1, 40° C.
Description: Dissolution of Sodium Risedronate in Diluted Hydrochloric Acid
a) 0.273 g (0.796 mmol) of sodium risedronate pentahemihydrate (crystalline form A) according to WO 01/56983, having the water content 12.5%, was introduced into 100 ml of stirred aqueous solution of hydrochloric acid at pH 1.1 and temperature of 40° C. Within 30 seconds a transparent solution was formed.
b) 0.250 g (0,796 mmol) of semi-crystalline sodium risedronate according to Example 2 above, having the water content 3%, was introduced into 100 ml of stirred aqueous solution of hydrochloric acid at pH 1.1 and temperature of 40° C. Within less than 30 seconds a quite transparent solution was formed.

[2] = 0.200 g suspended in 2 ml water at 22° C., water added dropwise at 0.2 ml/min until transparent solution
[3] = Water content after storage on the open air; assay type: physicochemical; settings: after one month storage on the open air at laboratory temperature; 1.7% of water when prepared
Description: 10 g of crystalline form of risedronate pentahydrate (according to WO 2004/037252) was dried at 110° C. for 20 hours. 8.2 g of the semi-crystalline form of risedronate sodium was obtained, which was characterized with X-ray powder diffraction (FIG. 9), ^13C and ^31P Cp MAS NMR spectra (FIGS. 7 and 8) and IR spectra (FIG. 6). Thus prepared semi-crystalline risedronate contained 1.7% of water. After one month storage on the open air at laboratory temperature the content of water increased to 3%.

Structure (SMILES)	solubility (physchem)	time until a transparent solution was formed [1]	precipitation on further stirring under constant conditions ([1]; aqueous hydrochloric acid pH 1.1, 40° C., stirred for further 15 mins)	total consumption of water for dissolution of the sample [2]	content of water after storage [3]	time after formation of the transparent solution until a white suspension of poorly soluble risedronic acid started to precipitate ([1]; pH 1.1)
O=P(O)(O)C(O)(Cc1cccnc1)P(=O)(O)O [Example 2, monosodium salt of 3-pyridyl-1-hydroxyethylidene-1,1-bisphosphonic acid]	255 mM	less than 30 seconds	without any observable precipitation	2.5 mL	3%	–
O.O.O.O.O.O=P([O-])(O)C(O)(Cc1cccnc1)P(=O)(O)O.O=P([O-])(O)C(O)(Cc1cccnc1)P(=O)(O)O.[Na+].[Na+] [sodium risedronate pentahemihydrate, reference compound]	–	≤ 30 s	–	3.5 mL	–	≤ 20 s
